# In PubChem BioAssay AID2060506 (Molecular Pharmacology Branch, DTP, NCI, 2025):
# Test system: 598228-144-R-J1-PDC complex spheroid viability
# Assay: Anticancer human tumor 598228-144-R-J1-PDC patient-derived serous endometrial adenocarcinoma cell line growth inhibition [GQUAD]
# Details: for IC50: curve of first compound; for viability, T/C: stronger effect = lower value
# Outline: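 Tumor cells were grown as complex spheroids with HUVEC endothelial cells and mesenchymal stem cells as stroma. G-quadruplex stabilizers were combined with targeted agents over half-log dilutions from near the clinical Cmax, or from 10 microM.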
# [1] = second compound 0.0316 µM, first compound 0.0316 µM
# [2] = second compound 0.0316 µM, first compound 0.1 µM
# [3] = second compound 0.0316 µM, first compound 0.316 µM
# [4] = second compound 0.0316 µM, first compound 1 µM
# [5] = second compound 0.0316 µM, first compound 3.16 µM
# [6] = second compound 0.0316 µM, first compound 10 µM
# [7] = second compound 0.1 µM, first compound 0.0316 µM
# [8] = second compound 0.1 µM, first compound 0.1 µM
# [9] = second compound 0.1 µM, first compound 0.316 µM
# [10] = second compound 0.1 µM, first compound 1 µM
# [11] = second compound 0.1 µM, first compound 3.16 µM
# [12] = second compound 0.1 µM, first compound 10 µM
# [13] = second compound 0.316 µM, first compound 0.0316 µM
# [14] = second compound 0.316 µM, first compound 0.1 µM
# [15] = second compound 0.316 µM, first compound 0.316 µM
# [16] = second compound 0.316 µM, first compound 1 µM
# [17] = second compound 0.316 µM, first compound 3.16 µM
# [18] = second compound 0.316 µM, first compound 10 µM
# [19] = second compound 1 µM, first compound 0.0316 µM
# [20] = second compound 1 µM, first compound 0.1 µM
# [21] = second compound 1 µM, first compound 0.316 µM
# [22] = second compound 1 µM, first compound 1 µM
# [23] = second compound 1 µM, first compound 3.16 µM
# [24] = second compound 1 µM, first compound 10 µM
# [25] = second compound 3.16 µM, first compound 0.0316 µM
# [26] = second compound 3.16 µM, first compound 0.1 µM
# [27] = second compound 3.16 µM, first compound 0.316 µM
# [28] = second compound 3.16 µM, first compound 1 µM
# [29] = second compound 3.16 µM, first compound 3.16 µM
# [30] = second compound 3.16 µM, first compound 10 µM
# [31] = second compound 10 µM, first compound 0.0316 µM
# [32] = second compound 10 µM, first compound 0.1 µM
# [33] = second compound 10 µM, first compound 0.316 µM
# [34] = second compound 10 µM, first compound 1 µM
# [35] = second compound 10 µM, first compound 3.16 µM
# [36] = second compound 10 µM, first compound 10 µM
# 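Also: spheroids exposed to the agents for one week before reading.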
# 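For viability, T/C in this document: percent of vehicle DMSO control viability so 100% = untreated growth.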
structure (smiles),measurement,setting,value
Cc1cccc(N(C)C(=O)C2C(O)CCN2c2nc(C)cc(C(F)(F)F)c2C#N)c1 (stereo unspecified) + Cc1cnc(CNC(=O)c2c(=O)c3ccc(N4CCCN(C)CC4)nc3n3c2sc2ccccc23)cn1,IC50,second compound 0.0316 µM,> 10000 nM
same,IC50,second compound 0.1 µM,> 10000 nM
same,IC50,second compound 0.316 µM,> 10000 nM
same,IC50,second compound 1 µM,> 10000 nM
same,IC50,second compound 3.16 µM,> 10000 nM
same,IC50,second compound 10 µM,< 31.6 nM
same,"viability, T/C",[1],92.7%
same,"viability, T/C",[2],83.7%
same,"viability, T/C",[3],91%
same,"viability, T/C",[4],99%
same,"viability, T/C",[5],112%
same,"viability, T/C",[6],91.4%
same,"viability, T/C",[7],76.8%
same,"viability, T/C",[8],69.3%
same,"viability, T/C",[9],64.4%
same,"viability, T/C",[10],67.9%
same,"viability, T/C",[11],86.6%
same,"viability, T/C",[12],66.5%
same,"viability, T/C",[13],63.2%
same,"viability, T/C",[14],66.6%
same,"viability, T/C",[15],70.3%
same,"viability, T/C",[16],63.6%
same,"viability, T/C",[17],61.3%
same,"viability, T/C",[18],60.2%
same,"viability, T/C",[19],68.9%
same,"viability, T/C",[20],62.5%
same,"viability, T/C",[21],58.7%
same,"viability, T/C",[22],61.9%
same,"viability, T/C",[23],58.3%
same,"viability, T/C",[24],60.5%
same,"viability, T/C",[25],52.4%
same,"viability, T/C",[26],58.3%
same,"viability, T/C",[27],57.9%
same,"viability, T/C",[28],44.3%
same,"viability, T/C",[29],58.7%
same,"viability, T/C",[30],50.5%
same,"viability, T/C",[31],55.8%
same,"viability, T/C",[32],45.7%
same,"viability, T/C",[33],37.8%
same,"viability, T/C",[34],46%
same,"viability, T/C",[35],66.1%
same,"viability, T/C",[36],36.2%
CC1COCCN1c1cc(-c2ccnn2C)c2ccnc(-c3ccn[nH]3)c2n1 (stereo unspecified) + Cc1[nH]c2ccc(F)cc2c1-c1nc2c3cccnc3c3ncccc3c2[nH]1,IC50,second compound 0.0316 µM,209 nM
same,IC50,second compound 0.1 µM,221 nM
same,IC50,second compound 0.316 µM,78.2 nM
same,IC50,second compound 1 µM,< 31.6 nM
same,IC50,second compound 3.16 µM,< 31.6 nM
same,IC50,second compound 10 µM,< 31.6 nM
same,"viability, T/C",[1],92.4%
same,"viability, T/C",[2],63.8%
same,"viability, T/C",[3],41.3%
same,"viability, T/C",[4],43.3%
same,"viability, T/C",[5],37.2%
same,"viability, T/C",[6],36%
same,"viability, T/C",[7],71.1%
same,"viability, T/C",[8],55.7%
same,"viability, T/C",[9],41.6%
same,"viability, T/C",[10],50.2%
same,"viability, T/C",[11],52.6%
same,"viability, T/C",[12],44%
same,"viability, T/C",[13],59%
same,"viability, T/C",[14],47.7%
same,"viability, T/C",[15],45.7%
same,"viability, T/C",[16],47.2%
same,"viability, T/C",[17],43.9%
same,"viability, T/C",[18],49.1%
same,"viability, T/C",[19],44.3%
same,"viability, T/C",[20],41.5%
same,"viability, T/C",[21],37.6%
same,"viability, T/C",[22],41.8%
same,"viability, T/C",[23],45.1%
same,"viability, T/C",[24],36.5%
same,"viability, T/C",[25],36.9%
same,"viability, T/C",[26],36.9%
same,"viability, T/C",[27],39.7%
same,"viability, T/C",[28],30.7%
same,"viability, T/C",[29],24.9%
same,"viability, T/C",[30],22.4%
same,"viability, T/C",[31],47%
same,"viability, T/C",[32],42.7%
same,"viability, T/C",[33],41.4%
same,"viability, T/C",[34],36.8%
same,"viability, T/C",[35],44.1%
same,"viability, T/C",[36],36.5%
CC1COCCN1c1cc(C2(O)CC3CCC(C2)O3)c2cnn(-c3ccn[nH]3)c2n1 (stereo unspecified) + CN(C)c1ccc(Nc2c3ccc(NC(=O)CCN4CCCC4)cc3nc3cc(NC(=O)CCN4CCCC4)ccc23)cc1,IC50,second compound 0.0316 µM,72.8 nM
same,IC50,second compound 0.1 µM,90 nM
same,IC50,second compound 0.316 µM,130 nM
same,IC50,second compound 1 µM,162 nM
same,IC50,second compound 3.16 µM,146 nM
same,IC50,second compound 10 µM,46 nM
same,"viability, T/C",[1],58.7%
same,"viability, T/C",[2],45.8%
same,"viability, T/C",[3],34.9%
same,"viability, T/C",[4],32.9%
same,"viability, T/C",[5],25.2%
same,"viability, T/C",[6],13.9%
same,"viability, T/C",[7],60.5%
same,"viability, T/C",[8],49.3%
same,"viability, T/C",[9],34.3%
same,"viability, T/C",[10],32.7%
same,"viability, T/C",[11],28.2%
same,"viability, T/C",[12],12.7%
same,"viability, T/C",[13],74.8%
same,"viability, T/C",[14],49%
same,"viability, T/C",[15],36.5%
same,"viability, T/C",[16],37.1%
same,"viability, T/C",[17],28.6%
same,"viability, T/C",[18],15.4%
same,"viability, T/C",[19],68.5%
same,"viability, T/C",[20],44.6%
same,"viability, T/C",[21],44.3%
same,"viability, T/C",[22],35.6%
same,"viability, T/C",[23],36.1%
same,"viability, T/C",[24],12.4%
same,"viability, T/C",[25],61.8%
same,"viability, T/C",[26],55.9%
same,"viability, T/C",[27],35.1%
same,"viability, T/C",[28],39.6%
same,"viability, T/C",[29],25.6%
same,"viability, T/C",[30],9.44%
same,"viability, T/C",[31],58.5%
same,"viability, T/C",[32],34.5%
same,"viability, T/C",[33],27.6%
same,"viability, T/C",[34],23.7%
same,"viability, T/C",[35],26.6%
same,"viability, T/C",[36],3.21%
